The values below come from ChEMBL document CHEMBL1146347, “Carinatumins A-C, new alkaloids from Lycopodium carinatum inhibiting acetylcholinesterase” (Bioorg Med Chem, 2007).

This experiment has as its target T1, Acetylcholinesterase (Bos taurus, UniProt P23795).
T1 sequence (P23795 whole entry): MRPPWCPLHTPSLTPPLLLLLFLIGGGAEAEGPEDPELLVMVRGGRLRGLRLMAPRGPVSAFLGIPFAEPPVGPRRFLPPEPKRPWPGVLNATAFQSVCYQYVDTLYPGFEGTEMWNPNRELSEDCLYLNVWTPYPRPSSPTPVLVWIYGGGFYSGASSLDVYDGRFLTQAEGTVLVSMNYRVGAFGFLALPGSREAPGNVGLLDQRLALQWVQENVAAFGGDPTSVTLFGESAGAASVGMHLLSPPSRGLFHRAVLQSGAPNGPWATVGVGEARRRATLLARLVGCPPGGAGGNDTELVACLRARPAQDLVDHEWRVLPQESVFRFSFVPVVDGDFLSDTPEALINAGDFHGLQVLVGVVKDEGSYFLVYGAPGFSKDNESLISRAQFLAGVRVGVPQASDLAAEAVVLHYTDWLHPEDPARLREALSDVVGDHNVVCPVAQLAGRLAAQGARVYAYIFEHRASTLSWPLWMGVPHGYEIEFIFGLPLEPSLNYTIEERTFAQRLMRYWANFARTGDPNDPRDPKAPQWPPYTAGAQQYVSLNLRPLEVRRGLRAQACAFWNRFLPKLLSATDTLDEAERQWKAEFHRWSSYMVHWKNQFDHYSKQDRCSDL
Put plainly: Inhibition of bovine erythrocyte acetylcholinesterase.

Each structure is given as a SMILES string.

The compound `CC1=C[C@H]2Cc3[nH]c(=O)ccc3[C@](N)(C1)/C2=C/CO` returned a concentration for half-maximal inhibition (IC50) of 4.6 µM.
`C[C@H]1C[C@@H](CC2=[N+]([O-])CCCC2)[C@@H]2CCCN[C@H]2C1` returned a half-maximal inhibitory concentration (IC50) of more than 100 µM.
As for `CC1=C[C@H]2Cc3[nH]c(=O)ccc3[C@]3(C1)NCC[C@@H](O)[C@H]23` [CARINATUMINS B (2)], it took 7 µM to reach half-maximal inhibition (IC50).

As usually defined, the IC50 is the point on the concentration scale where inhibition reaches its midpoint. High values mean weaker potency, low ones greater potency.
